Results as given in ChEMBL document CHEMBL4418493, “N-hydroxyformamide compounds and compositions comprising them for use as BMP1, TLL1 and/or TLL2 inhibitors” (2018).

Tests used:
[1] = Drug metabolism in heparinized pooled human plasma at pH 7.5 assessed as formation of (S)-2-(2-(carboxymethoxy)-4-(5-((((R)-2-((R)-1-(N-hydroxyformamido)propyl)heptanamido)methyl)carbamoyl)furan-2-yl)benzamido)succinic acid at 100 to 2000 ng/ml incubated up to 4 or 24 hrs by LC-MS/MS analysis; assay type: ADME, cell-free; conditions: pH 7.5, 24 h
[2] = Reduction in PICP levels in human cardiac fibroblasts incubated for 24 to 48 hrs by ELISA; assay type: functional
[3] = Drug metabolism in heparinized pooled human plasma at pH 7.5 assessed as formation of (3-ethoxy-5-(5-((((R)-2-((R)-1-(N-hydroxyformamido)propyl)heptanamido)methyl)carbamoyl) furan-2-yl)phenyl)phosphonic acid at 100 to 2000 ng/ml incubated up to 4 or 24 hrs by LC-MS/MS analysis; assay type: ADME, cell-free; conditions: pH 7.5, 24 h
[4] = Drug metabolism in heparinized pooled human plasma at pH 7.5 assessed as formation of (S)-2-(2-ethoxy-4-(5-((((R)-2-((R)-1-(N-hydroxyformamido)propyl)heptanamido)methyl) carbamoyl)furan-2-yl)benzamido)succinic acid at 100 to 2000 ng/ml incubated up to 4 or 24 hrs by LC-MS/MS analysis; assay type: ADME, cell-free; conditions: pH 7.5, 24 h

Drug metabolism [1] | Drug metabolism [4] | SMILES | IC50 [2] [µM] | Drug metabolism [3]
Metabolite_Detected |  | CCCCC[C@@H](C(=O)NCNC(=O)c1ccc(-c2ccc(C(=O)N[C@@H](CC(=O)O)C(=O)O)c(OCC(=O)O)c2)o1)[C@@H](CC)N(C=O)OC(=O)c1ccc(OC)c(OC)c1 | < 3.98 | 
Metabolite_Detected |  | CCCCC[C@@H](C(=O)NCNC(=O)c1ccc(-c2ccc(C(=O)N[C@@H](CC(=O)O)C(=O)O)c(OCC(=O)O)c2)o1)[C@@H](CC)N(C=O)OC(=O)c1ccncc1C.N.N.N | < 3.98 | 
 |  | CCCCC[C@@H](C(=O)NCNC(=O)c1ccc(-c2cc(OCC)cc(P(=O)(O)OCOC(=O)C(C)C)c2)o1)[C@@H](CC)N(O)C=O |  | Metabolite_Detected
 |  | CCCCC[C@@H](C(=O)NCNC(=O)c1ccc(-c2cc(OCC)cc(P(=O)(O)O)c2)o1)[C@@H](CC)N(C=O)OC(=O)c1ccccc1OC(=O)N(C)C |  | Metabolite_Detected
 |  | CCCCC[C@@H](C(=O)NCNC(=O)c1ccc(-c2cc(OCC)cc(P(=O)(O)O)c2)o1)[C@@H](CC)N(C=O)OC(=O)c1ccc(F)cc1C(C)C |  | Metabolite_Detected
Metabolite_Detected |  | CCCCC[C@@H](C(=O)NCNC(=O)c1ccc(-c2ccc(C(=O)N[C@@H](CC(=O)O)C(=O)O)c(OCC(=O)O)c2)o1)[C@@H](CC)N(C=O)OC(=O)c1ccc2ccccc2c1 | < 3.98 | 
Metabolite_Detected |  | CCCCC[C@@H](C(=O)NCNC(=O)c1ccc(-c2ccc(C(=O)N[C@@H](CC(=O)O)C(=O)O)c(OCC(=O)O)c2)o1)[C@@H](CC)N(C=O)OC(=O)c1c(C)noc1C | < 3.98 | 
Metabolite_Detected |  | CCCCC[C@@H](C(=O)NCNC(=O)c1ccc(-c2ccc(C(=O)N[C@@H](CC(=O)O)C(=O)O)c(OCC(=O)O)c2)o1)[C@@H](CC)N(C=O)OC(=O)c1ccc(OC)cc1C(C)C | < 3.98 | 
Metabolite_Detected |  | CCCCC[C@@H](C(=O)NCNC(=O)c1ccc(-c2ccc(C(=O)N[C@@H](CC(=O)O)C(=O)O)c(OCC(=O)O)c2)o1)[C@@H](CC)N(C=O)OC(=O)c1c(C)cccc1F |  | 
Metabolite_Detected |  | CCCCC[C@@H](C(=O)NCNC(=O)c1ccc(-c2ccc(C(=O)N[C@@H](CC(=O)O)C(=O)O)c(OCC(=O)O)c2)o1)[C@@H](CC)N(C=O)OC(=O)c1c(C)cccc1OC | < 3.98 | 
 |  | CCCCC[C@@H](C(=O)NCNC(=O)c1ccc(-c2cc(OCC)cc(P(=O)(O)O)c2)o1)[C@@H](CC)N(C=O)OC(=O)c1cccc(N2CCCC2)c1.N.N |  | Metabolite_Detected
Metabolite_Detected |  | CCCCC[C@@H](C(=O)NCNC(=O)c1ccc(-c2ccc(C(=O)N[C@@H](CC(=O)O)C(=O)O)c(OCC(=O)O)c2)o1)[C@@H](CC)N(C=O)OC(=O)C1(C)CC1 | < 3.98 | 
Metabolite_Detected |  | CCCCC[C@@H](C(=O)NCNC(=O)c1ccc(-c2ccc(C(=O)N[C@@H](CC(=O)O)C(=O)O)c(OCC(=O)O)c2)o1)[C@@H](CC)N(C=O)OC(=O)c1ccccc1N | < 3.98 | 
Metabolite_Detected |  | CCCCC[C@@H](C(=O)NCNC(=O)c1ccc(-c2ccc(C(=O)N[C@@H](CC(=O)O)C(=O)O)c(OCC(=O)O)c2)o1)[C@@H](CC)N(C=O)OC(=O)Nc1ccccc1 |  | 
Metabolite_Detected |  | CCCCC[C@@H](C(=O)NCNC(=O)c1ccc(-c2ccc(C(=O)N[C@@H](CC(=O)O)C(=O)O)c(OCC(=O)O)c2)o1)[C@@H](CC)N(C=O)OC(=O)N(C)C(=O)OC(C)(C)C | < 3.98 | 
Metabolite_Detected |  | CCCCC[C@@H](C(=O)NCNC(=O)c1ccc(-c2ccc(C(=O)N[C@@H](CC(=O)O)C(=O)O)c(OCC(=O)O)c2)o1)[C@@H](CC)N(C=O)OC(=O)NC(C)(C)c1ccccc1 |  | 
Metabolite_Detected |  | CCCCC[C@@H](C(=O)NCNC(=O)c1ccc(-c2ccc(C(=O)N[C@@H](CC(=O)O)C(=O)O)c(OCC(=O)O)c2)o1)[C@@H](CC)N(C=O)OC(=O)c1ccc(OC)cc1OC.N.N.N | < 3.98 | 
Metabolite_Detected |  | CCCCC[C@@H](C(=O)NCNC(=O)c1ccc(-c2ccc(C(=O)N[C@@H](CC(=O)O)C(=O)O)c(OCC(=O)O)c2)o1)[C@@H](CC)N(C=O)OC(=O)c1ccc(CN2CCOCC2)cc1C | < 3.98 | 
Metabolite_Detected |  | CCCCC[C@@H](C(=O)NCNC(=O)c1ccc(-c2ccc(C(=O)N[C@@H](CC(=O)O)C(=O)O)c(OCC(=O)O)c2)o1)[C@@H](CC)N(C=O)OC(=O)c1ccc(F)cc1C(C)C | < 3.98 | 

Drug metabolism [1] | Drug metabolism [4] | SMILES | IC50 [2] [µM] | Drug metabolism [3]
Metabolite_Detected |  | CCCCC[C@@H](C(=O)NCNC(=O)c1ccc(-c2ccc(C(=O)N[C@@H](CC(=O)O)C(=O)O)c(OCC(=O)O)c2)o1)[C@@H](CC)N(C=O)OC(=O)NC(C)C | < 3.98 | 
Metabolite_Detected |  | CCCCC[C@@H](C(=O)NCNC(=O)c1ccc(-c2ccc(C(=O)N[C@@H](CC(=O)O)C(=O)O)c(OCC(=O)O)c2)o1)[C@@H](CC)N(C=O)OC(=O)c1cccc(C(=O)O)c1 |  | 
Metabolite_Detected |  | CCCCC[C@@H](C(=O)NCNC(=O)c1ccc(-c2ccc(C(=O)N[C@@H](CC(=O)O)C(=O)O)c(OCC(=O)O)c2)o1)[C@@H](CC)N(C=O)OC(=O)C(c1ccccc1)c1ccccc1 | < 3.98 | 
Metabolite_Detected |  | CCCCC[C@@H](C(=O)NCNC(=O)c1ccc(-c2ccc(C(=O)N[C@@H](CC(=O)O)C(=O)O)c(OCC(=O)O)c2)o1)[C@@H](CC)N(C=O)OC(=O)NC |  | 
Metabolite_Detected |  | CCCCC[C@@H](C(=O)NCNC(=O)c1ccc(-c2ccc(C(=O)N[C@@H](CC(=O)O)C(=O)O)c(OCC(=O)O)c2)o1)[C@@H](CC)N(C=O)OC(=O)c1ccccc1C(C)C | < 3.98 | 
Metabolite_Detected |  | CCCCC[C@@H](C(=O)NCNC(=O)c1ccc(-c2ccc(C(=O)N[C@@H](CC(=O)O)C(=O)O)c(OCC(=O)O)c2)o1)[C@@H](CC)N(C=O)OC(=O)c1ccc(CN2CCOCC2)cc1 | < 3.98 | 
 | Metabolite_Detected | CCCCC[C@@H](C(=O)NCNC(=O)c1ccc(-c2ccc(C(=O)N[C@@H](CC(=O)O)C(=O)O)c(OCC)c2)o1)[C@@H](CC)N(C=O)OC(=O)c1c(C)cccc1F | < 3.98 | 
 | Metabolite_Detected | CCCCC[C@@H](C(=O)NCNC(=O)c1ccc(-c2ccc(C(=O)N[C@@H](CC(=O)O)C(=O)O)c(OCC)c2)o1)[C@@H](CC)N(C=O)OC(=O)c1ccc(OCCOCCO)cc1 | < 3.98 | 
 | Metabolite_Detected | CCCCC[C@@H](C(=O)NCNC(=O)c1ccc(-c2ccc(C(=O)N[C@@H](CC(=O)O)C(=O)O)c(OCC)c2)o1)[C@@H](CC)N(C=O)OC(=O)c1ccc(C(F)(F)F)cc1 | < 3.98 | 
Metabolite_Detected |  | CCCCC[C@@H](C(=O)NCNC(=O)c1ccc(-c2ccc(C(=O)N[C@@H](CC(=O)O)C(=O)O)c(OCC(=O)O)c2)o1)[C@@H](CC)N(C=O)OC(=O)c1ccc(OC)cc1 |  | 
Metabolite_Detected |  | CCCCC[C@@H](C(=O)NCNC(=O)c1ccc(-c2ccc(C(=O)N[C@@H](CC(=O)O)C(=O)O)c(OCC(=O)O)c2)o1)[C@@H](CC)N(C=O)OC(=O)c1c(C)ccnc1C | < 3.98 | 
Metabolite_Detected |  | CCCCC[C@@H](C(=O)NCNC(=O)c1ccc(-c2ccc(C(=O)N[C@@H](CC(=O)O)C(=O)O)c(OCC(=O)O)c2)o1)[C@@H](CC)N(C=O)OC(=O)C(CCC)CCC | < 3.98 | 
 | Metabolite_Detected | CCCCC[C@@H](C(=O)NCNC(=O)c1ccc(-c2ccc(C(=O)N[C@@H](CC(=O)O)C(=O)O)c(OCC)c2)o1)[C@@H](CC)N(C=O)OC(=O)c1ccc(N(C)S(C)(=O)=O)cc1 | < 3.98 | 
Metabolite_Detected |  | CCCCC[C@@H](C(=O)NCNC(=O)c1ccc(-c2ccc(C(=O)N[C@@H](CC(=O)O)C(=O)O)c(OCC(=O)O)c2)o1)[C@@H](CC)N(C=O)OC(=O)C1CC1C (some centres not stated) |  | 
Metabolite_Detected |  | CCCCC[C@@H](C(=O)NCNC(=O)c1ccc(-c2ccc(C(=O)N[C@@H](CC(=O)O)C(=O)O)c(OCC(=O)O)c2)o1)[C@@H](CC)N(C=O)OC(=O)NC(C)(C)C | < 3.98 | 
Metabolite_Detected |  | CCCCC[C@@H](C(=O)NCNC(=O)c1ccc(-c2ccc(C(=O)N[C@@H](CC(=O)O)C(=O)O)c(OCC(=O)O)c2)o1)[C@@H](CC)N(C=O)OC(=O)c1cccc2ccccc12 | < 3.98 | 
Metabolite_Detected |  | CCCCC[C@@H](C(=O)NCNC(=O)c1ccc(-c2ccc(C(=O)N[C@@H](CC(=O)O)C(=O)O)c(OCC(=O)O)c2)o1)[C@@H](CC)N(C=O)OC(=O)c1ccccc1NC | < 3.98 | 
 | Metabolite_Detected | CCCCC[C@@H](C(=O)NCNC(=O)c1ccc(-c2ccc(C(=O)N[C@@H](CC(=O)O)C(=O)O)c(OCC)c2)o1)[C@@H](CC)N(C=O)OC(=O)c1ccc(CN2CCOCC2)cc1C | < 3.98 | 

SMILES | Drug metabolism [1] | Drug metabolism [4] | IC50 [2] [µM] | Drug metabolism [3]
CCCCC[C@@H](C(=O)NCNC(=O)c1ccc(-c2ccc(C(=O)N[C@@H](CC(=O)O)C(=O)O)c(OCC(=O)O)c2)o1)[C@@H](CC)N(C=O)OP(=O)(N[C@@H](C)C(=O)OC)Oc1ccccc1.N.N.N (some centres not stated) | Metabolite_Detected |  |  | 
CCCCC[C@@H](C(=O)NCNC(=O)c1ccc(-c2ccc(C(=O)N[C@@H](CC(=O)O)C(=O)O)c(OCC)c2)o1)[C@@H](CC)N(C=O)OC(=O)C1CCNCC1.O=C(O)C(F)(F)F |  | Metabolite_Detected | < 3.98 | 
CCCCC[C@@H](C(=O)NCNC(=O)c1ccc(-c2ccc(C(=O)N[C@@H](CC(=O)O)C(=O)O)c(OCC(=O)O)c2)o1)[C@@H](CC)N(C=O)OC(=O)c1ccccc1OC(=O)N(C)C | Metabolite_Detected |  |  | 
